Test: Non-specific drug binding (NSB) to 96-well plates, drug in phosphate buffer
Type: physicochemical
Conditions: time course study on PP and PTFE plates using LC-MS (data not shown)
Procedure: The drug NSB (10 nM drug in phosphate buffer) to other 96-well plates made from different plastics was also tested.

SMILES	drug NSB, dependence on plate material
CC(=O)O[C@H]1C(=O)[C@@]2(C)[C@H]([C@H](OC(=O)c3ccccc3)[C@]3(O)C[C@H](OC(=O)[C@H](O)[C@@H](NC(=O)c4ccccc4)c4ccccc4)C(C)=C1C3(C)C)[C@]1(OC(C)=O)CO[C@@H]1C[C@@H]2O [taxol]	independent of plate material
C[C@]12CC[C@H]3[C@@H](CCC4=CC(=O)CC[C@@]43C)[C@@H]1CC[C@@H]2O [testosterone]	independent of plate material

Reference: patent US20080193913A1, “Diluent, methods of manufacture and use” (Millipore Corporation, priority 2002, published 2008)
